# Laboratory results published in patent EP1247803A2, “Indolinone compounds suitable for modulation of protein kinases” (Sugen, Inc., priority 1996, dated 1998).
# What was measured:
# EGFR = molecular target: T1, EGFR (Homo sapiens, UniProt P00533); test: EGFR ELISA assay (in vitro kinase activity, EGFR captured from A431 cell lysate); format: biochemical; parameters: concentration or dose not given beside the values
# T1 construct: Add 7 ug A431 cell lysate per well (EGFR source); endogenous in cells; host or cells: A431
# In short: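 EGFR from A431 lysate was captured on anti-EGFR antibody-coated plates and preincubated with compounds for 30 min. Autophosphorylation ran 5 min with 3 uM ATP and 5 mM MnCl2 (final), stopped with 20 mM EDTA. Phosphotyrosine was detected by anti-pTyr ELISA with ABTS/H2O2, read at 410 nm.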
# MET = MET biochemical kinase assay; parameters: species or system human; concentration or dose not given beside the values
# In short: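 Immunocaptured MET autophosphorylation, read colorimetrically (TMB) via HRP anti-phosphotyrosine antibody. Kinase reaction initiated with buffer containing ATP and divalent metals after compound addition to plate-bound receptor from lysates.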
# T1 sequence (P00533 25-1210): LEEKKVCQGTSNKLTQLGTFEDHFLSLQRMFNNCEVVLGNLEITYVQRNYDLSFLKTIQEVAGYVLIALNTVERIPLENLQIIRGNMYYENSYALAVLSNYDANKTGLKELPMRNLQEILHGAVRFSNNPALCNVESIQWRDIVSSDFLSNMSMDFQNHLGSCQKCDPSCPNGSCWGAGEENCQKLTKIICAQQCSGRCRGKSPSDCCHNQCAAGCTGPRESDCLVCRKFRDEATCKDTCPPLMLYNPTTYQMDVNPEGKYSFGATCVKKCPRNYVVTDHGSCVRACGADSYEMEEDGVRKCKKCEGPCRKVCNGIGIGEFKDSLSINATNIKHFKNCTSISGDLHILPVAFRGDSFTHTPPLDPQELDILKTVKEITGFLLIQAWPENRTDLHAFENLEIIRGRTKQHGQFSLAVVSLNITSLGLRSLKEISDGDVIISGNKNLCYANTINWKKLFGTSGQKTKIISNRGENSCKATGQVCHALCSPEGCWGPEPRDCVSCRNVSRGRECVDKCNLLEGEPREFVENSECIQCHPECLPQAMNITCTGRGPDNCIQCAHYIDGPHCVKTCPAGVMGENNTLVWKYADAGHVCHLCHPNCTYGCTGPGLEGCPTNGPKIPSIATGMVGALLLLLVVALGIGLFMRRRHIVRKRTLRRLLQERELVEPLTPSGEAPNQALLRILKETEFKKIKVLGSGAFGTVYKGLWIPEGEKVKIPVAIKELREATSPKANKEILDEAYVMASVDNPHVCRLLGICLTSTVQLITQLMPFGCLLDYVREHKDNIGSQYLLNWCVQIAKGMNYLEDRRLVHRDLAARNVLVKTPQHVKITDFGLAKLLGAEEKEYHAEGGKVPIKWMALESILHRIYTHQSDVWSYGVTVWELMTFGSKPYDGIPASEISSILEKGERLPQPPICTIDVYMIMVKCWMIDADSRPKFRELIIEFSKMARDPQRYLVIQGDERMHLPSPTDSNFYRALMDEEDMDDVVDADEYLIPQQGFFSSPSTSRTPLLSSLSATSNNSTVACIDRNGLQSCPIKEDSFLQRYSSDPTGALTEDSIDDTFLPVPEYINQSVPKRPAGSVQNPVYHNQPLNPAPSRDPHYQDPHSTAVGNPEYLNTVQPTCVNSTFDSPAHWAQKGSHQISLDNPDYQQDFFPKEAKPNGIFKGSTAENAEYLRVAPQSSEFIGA
SMILES,Biochem EGFR %Inhibition (EGFR),Met Kinase % Inhibition (MET)
O=C1Nc2c(Br)cc(Br)cc2C1=Cc1cccs1 [10717/A03],1.0%,54.6%
CCOc1ccccc1C=C1C(=O)Nc2ccc(S(=O)(=O)NC)cc21 [10717/D02],10.1%,28.6%
CNS(=O)(=O)c1ccc2c(c1)C(=Cc1cccs1)C(=O)N2 [10717/D03],-1.4%,11.1%
CNS(=O)(=O)c1ccc2c(c1)C(=Cc1cccn1C)C(=O)N2 [10717/D04],4.9%,21.0%
CNS(=O)(=O)c1ccc2c(c1)C(=Cc1ccc(F)cc1)C(=O)N2 [10717/D05],-2.8%,23.8%
CNS(=O)(=O)c1ccc2c(c1)C(=Cc1c[nH]c3ccccc13)C(=O)N2 [10717/D06],-23.4%,33.8%
CNS(=O)(=O)c1ccc2c(c1)C(=Cc1ccc(C)s1)C(=O)N2 [10717/D07],-4.5%,16.8%
CNS(=O)(=O)c1ccc2c(c1)C(=Cc1ccc(Br)cc1)C(=O)N2 [10717/D08],-7.8%,16.0%
CNS(=O)(=O)c1ccc2c(c1)C(=Cc1ccc[nH]1)C(=O)N2 [10717/D09],6.8%,29.1%
CNS(=O)(=O)c1ccc2c(c1)C(=Cc1c(O)cccc1OC)C(=O)N2 [10717/D10],3.5%,15.6%
CNS(=O)(=O)c1ccc2c(c1)C(=Cc1cc(Br)c(O)c(C(C)(C)C)c1)C(=O)N2 [10721/D10],3.3%,13.4%
CNS(=O)(=O)c1ccc2c(c1)C(=Cc1cc(C(C)(C)C)c(O)c(C(C)(C)C)c1)C(=O)N2 [10721/D11],22.2%,23.2%
Cn1c(C=C2C(=O)Nc3ccc(S(=O)(=O)Nc4ccc(C(F)(F)F)cc4)cc32)nc2ccccc21 [10721/E02],-9.5%,38.8%
Cn1cc(Cl)c(C=C2C(=O)Nc3ccc(S(=O)(=O)Nc4ccc(C(F)(F)F)cc4)cc32)n1 [10721/E03],25.1%,12.3%
Cc1cc(C=C2C(=O)Nc3ccc(S(=O)(=O)Nc4ccc(C(F)(F)F)cc4)cc32)sc1C [10721/E04],48.5%,87.3%
O=C1Nc2ccc(S(=O)(=O)Nc3ccc(C(F)(F)F)cc3)cc2C1=Cc1cc2c([nH]1)CCCC2 [10721/E05],61.3%,69.9%
O=C1Nc2ccc(S(=O)(=O)Nc3ccc(C(F)(F)F)cc3)cc2C1=Cc1cc([N+](=O)[O-])cc(CCl)c1O [10721/E06],91.5%,81.0%
O=C1Nc2ccc(S(=O)(=O)Nc3ccc(C(F)(F)F)cc3)cc2C1=Cc1ccc(Cl)s1 [10721/E07],37.7%,43.6%
Cc1cc(C)c(C=C2C(=O)Nc3ccc(S(=O)(=O)Nc4ccc(C(F)(F)F)cc4)cc32)[nH]1 [10721/E08],29.8%,39.5%
CC(C)(C)c1cc(C=C2C(=O)Nc3ccc(S(=O)(=O)Nc4ccc(C(F)(F)F)cc4)cc32)ccc1O [10721/E09],42.5%,0.7%
CC(C)(C)c1cc(C=C2C(=O)Nc3ccc(S(=O)(=O)Nc4ccc(C(F)(F)F)cc4)cc32)cc(Br)c1O [10721/E10],19.9%,55.7%
CC(C)(C)c1cc(C=C2C(=O)Nc3ccc(S(=O)(=O)Nc4ccc(C(F)(F)F)cc4)cc32)cc(C(C)(C)C)c1O [10721/E11],32.1%,31.3%
Cn1c(C=C2C(=O)Nc3ccc(S(=O)(=O)N4CCOCC4)cc32)nc2ccccc21 [10721/F02],11.0%,27.8%
Cn1cc(Cl)c(C=C2C(=O)Nc3ccc(S(=O)(=O)N4CCOCC4)cc32)n1 [10721/F03],7.0%,40.6%
Cc1cc(C=C2C(=O)Nc3ccc(S(=O)(=O)N4CCOCC4)cc32)sc1C [10721/F04],0.0%,26.0%

SMILES,Biochem EGFR %Inhibition (EGFR),Met Kinase % Inhibition (MET)
O=C1Nc2ccc(S(=O)(=O)N3CCOCC3)cc2C1=Cc1cc2c([nH]1)CCCC2 [10721/F05],20.5%,67.8%
O=C1Nc2ccc(S(=O)(=O)N3CCOCC3)cc2C1=Cc1cc([N+](=O)[O-])cc(CCl)c1O [10721/F06],21.7%,80.3%
O=C1Nc2ccc(S(=O)(=O)N3CCOCC3)cc2C1=Cc1ccc(Cl)s1 [10721/F07],3.5%,55.7%
Cc1cc(C)c(C=C2C(=O)Nc3ccc(S(=O)(=O)N4CCOCC4)cc32)[nH]1 [10721/F08],37.3%,76.1%
CC(C)(C)c1cc(C=C2C(=O)Nc3ccc(S(=O)(=O)N4CCOCC4)cc32)ccc1O [10721/F09],7.0%,52.5%
CC(C)(C)c1cc(C=C2C(=O)Nc3ccc(S(=O)(=O)N4CCOCC4)cc32)cc(Br)c1O [10721/F10],7.5%,79.9%
CC(C)(C)c1cc(C=C2C(=O)Nc3ccc(S(=O)(=O)N4CCOCC4)cc32)cc(C(C)(C)C)c1O [10721/F11],95.9%,78.2%
Cn1c(C=C2C(=O)Nc3ccc(CCCl)cc32)nc2ccccc21 [10721/G02],23.6%,7.9%
Cn1cc(Cl)c(C=C2C(=O)Nc3ccc(CCCl)cc32)n1 [10721/G03],23.4%,25.3%
Cc1cc(C=C2C(=O)Nc3ccc(CCCl)cc32)sc1C [10721/G04],64.6%,90.3%
O=C1Nc2ccc(CCCl)cc2C1=Cc1cc2c([nH]1)CCCC2 [10721/G05],7.7%,8.6%
O=C1Nc2ccc(CCCl)cc2C1=Cc1cc([N+](=O)[O-])cc(CCl)c1O [10721/G06],23.2%,39.5%
O=C1Nc2ccc(CCCl)cc2C1=Cc1ccc(Cl)s1 [10721/G07],14.7%,10.0%
Cc1cc(C)c(C=C2C(=O)Nc3ccc(CCCl)cc32)[nH]1 [10721/G08],12.8%,-2.4%
CC(C)(C)c1cc(C=C2C(=O)Nc3ccc(CCCl)cc32)ccc1O [10721/G09],14.9%,5.1%
CC(C)(C)c1cc(C=C2C(=O)Nc3ccc(CCCl)cc32)cc(Br)c1O [10721/G10],2.1%,12.0%
CC(C)(C)c1cc(C=C2C(=O)Nc3ccc(CCCl)cc32)cc(C(C)(C)C)c1O [10721/G11],0.4%,-0.0%
CC(C)(C)c1cc(C=C2C(=O)Nc3c(Br)cc(Br)cc32)cc([N+](=O)[O-])c1O [10722/A02],23.7%,44.9%
O=C1Nc2c(Br)cc(Br)cc2C1=Cc1c(O)cc(O)cc1O [10722/A03],0.8%,90.3%
O=C1Nc2c(Br)cc(Br)cc2C1=Cc1ccc([N+](=O)[O-])s1 [10722/A04],21.0%,51.4%
O=C1Nc2c(Br)cc(Br)cc2C1=Cc1ccc(C(=O)O)cc1 [10722/A05],22.4%,90.5%
O=C1Nc2c(Br)cc(Br)cc2C1=Cc1ccc(F)cc1F [10722/A06],28.4%,71.6%
Cc1cc(C=C2C(=O)Nc3c(Br)cc(Br)cc32)cc(C)c1O [10722/A07],29.9%,64.1%
CC(C)(C)c1cc(C=C2C(=O)Nc3c(Br)cc(Br)cc32)cc(Cl)c1O [10722/A08],23.9%,70.5%
